Reference: PubChem BioAssay (NCI)
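All cell lines were grown in 96-well plates and treated with compound for 48 hours. GI50 is the concentration that inhibits growth by half. Definition used: TGI = concentration required for complete inhibition of growth.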

Columns and labels:
Test in all cases: inhibition of tumour cell growth, NCI panel, 48 h
U251 CNS = system: U251 CNS
SK-MEL-28 melanoma = system: SK-MEL-28 melanoma
COLO 205 colon = system: COLO 205 colon
ACHN renal = system: ACHN renal
SK-OV-3 ovarian = system: SK-OV-3 ovarian
IGROV1 ovarian = system: IGROV1 ovarian
MALME-3M melanoma = system: MALME-3M melanoma
SNB-19 CNS = system: SNB-19 CNS
SK-MEL-5 melanoma = system: SK-MEL-5 melanoma
PC-3 prostate = system: PC-3 prostate

Structure (SMILES) | TGI (U251 CNS) [µM] | TGI (SK-MEL-28 melanoma) [µM] | TGI (COLO 205 colon) [µM] | TGI (ACHN renal) [µM] | TGI (SK-OV-3 ovarian) [µM] | TGI (IGROV1 ovarian) [µM] | TGI (MALME-3M melanoma) [µM] | TGI (SNB-19 CNS) [µM] | TGI (SK-MEL-5 melanoma) [µM] | TGI (PC-3 prostate) [µM] | GI50 (U251 CNS) [µM] | GI50 (PC-3 prostate) [µM] | GI50 (SK-MEL-28 melanoma) [µM] | GI50 (COLO 205 colon) [µM] | GI50 (ACHN renal) [µM] | GI50 (SK-OV-3 ovarian) [µM] | GI50 (IGROV1 ovarian) [µM] | GI50 (MALME-3M melanoma) [µM] | GI50 (SNB-19 CNS) [µM] | GI50 (SK-MEL-5 melanoma) [µM]
O=C1CC(CC(=O)C2CCCCC2=O)C(=O)N1 (stereo not given) | > 100 | > 100 | > 100 | > 100 | > 100 | > 100 | > 100 | > 100 |  |  |  |  |  |  |  |  |  |  |  | 
O=C(N/N=C/c1ccccc1O)N/N=C/c1ccccc1O | > 100 | > 100 | > 100 | > 100 | > 100 | > 100 | > 100 | > 100 |  |  |  |  |  |  |  |  |  |  |  | 
C/C=C/C(C#N)O[Si](C)(C)C (stereo not given) | > 100 | > 100 | > 100 | > 100 | > 100 | > 100 | > 100 | > 100 | > 100 |  |  |  |  |  |  |  |  |  |  | 
Cc1c(OC(C)C(=O)O)ccc2c(-c3ccccc3)cc(=O)oc12 (stereo not given) | > 100 | > 100 | > 100 | > 100 | > 100 | > 100 | > 100 | > 100 | > 100 |  |  |  |  |  |  |  |  |  |  | 
C[C@@H](NC(C#N)c1ccco1)c1ccccc1 (stereo not given in full) | > 100 | > 100 |  | > 100 | > 100 | > 100 | > 100 | > 100 | > 100 | > 100 |  |  |  |  |  |  |  |  |  | 
N#C[Se]Cc1cc(-c2ccccc2)n(-c2ccc(S(N)(=O)=O)cc2)n1 | 1.78 | 1.34 | 3.61 | 4.22 | 5.26 | 1.08 | 6.6 | 1.88 |  | 3.56 | 0.544 | 0.711 | 0.359 | 1.93 | 1.98 | 2.69 | 0.322 | 2.2 | 0.587 | 
O=C1OCC2=C1C(c1cccc(F)c1)c1cc3c(cc1N2CCO)OCO3 (stereo not given) | > 50 | > 50 | 15.1 | > 50 | > 50 | > 50 |  | > 50 | > 50 | > 50 | 2.5 | 1.46 | 20.3 | 1.48 | 3.03 | 1.73 | 4.19 |  | 3 | 1.26
Cn1c(=O)c(N=Nc2c(=O)n(C)c(=O)n3c2[nH]c2ccccc23)c2[nH]c3ccccc3n2c1=O | > 100 | > 100 | > 100 | > 100 | > 100 | > 100 | > 100 | 61.1 | > 100 |  |  |  |  |  |  |  |  |  |  | 
O=C(NCCCOC(=O)CCCCCCCCC(=O)OCCCNC(=O)NC(=O)c1c[nH]c(=O)[nH]c1=O)NC(=O)c1c[nH]c(=O)[nH]c1=O | > 100 | > 100 | > 100 | > 100 | > 100 | > 100 | > 100 | > 100 | > 100 |  |  |  |  |  |  |  |  |  |  | 
c1cc[c]([Sn][c]2ccccc2)cc1 | 42 | 36 | 59.4 | 69.8 | 90.9 | > 100 | 47.7 | 61 | 31.9 |  | 19.4 |  | 14.5 | 24.3 | 27.2 | 26.4 | 38.9 | 23.2 | 20 | 16.8
CC(=O)OCc1c2ccccc2c(C)c2c1cc(F)c1ccccc12 | 58.8 | > 100 | 36.4 | 46.9 | > 100 | 75.2 | > 100 | 82.4 | 69.6 |  |  |  |  |  |  |  |  |  |  | 
CCOC(=O)NC(=O)c1cn(CCN2CCN(C(=O)NCCCCCCNC(=O)N3CCN(CCn4cc(C(=O)NC(=O)OCC)c(=O)[nH]c4=O)CC3)CC2)c(=O)[nH]c1=O | > 100 | > 100 | > 100 | > 100 | > 100 | > 100 | > 100 | > 100 | > 100 |  |  |  |  |  |  |  |  |  |  | 
Clc1ccc(-c2cn3ccnc3c(-c3ccc(Cl)cc3)n2)cc1 | 57.4 | > 100 | > 100 | 52.3 | > 100 | > 100 |  | > 100 | 43.5 | > 100 | 12.9 | 19.6 | > 100 | 27.6 | 13 | 82.8 | 21 |  | 45.8 | 16.6
COC(=O)/C(=N\NC(C)(C)C)C(C(=O)OC)C(=O)C(=O)Nc1cc(Cl)ccc1Cl (stereo not given) | > 100 | > 100 | > 100 | > 100 | > 100 | > 100 | > 100 | > 100 | > 100 |  |  |  |  |  |  |  |  |  |  | 
C=C(c1ccccc1)C1(O)CCCCC1N (stereo not given) | > 100 | > 100 | > 100 | > 100 | > 100 | > 100 | > 100 | > 100 | > 100 |  |  |  |  |  |  |  |  |  |  | 
Cc1nc(C(N)=O)c(N)n1CCN1CCN(C(=O)CCCCCCCCCCNC2N=CNc3nc[nH]c32)CC1 (stereo not given) | > 100 | 79.1 | > 100 | > 100 | > 100 | > 100 | > 100 | > 100 |  |  |  |  |  |  |  |  |  |  |  | 
Nc1ncnc2c1ncn2C1OC(CSCC(F)(F)F)C(O)C1O (stereo not given) | > 100 | > 100 | > 100 | > 100 | > 100 | > 100 | > 100 | > 100 | > 100 |  |  |  |  |  |  |  |  |  |  | 
CCc1cccc(C)c1NS(=O)(=O)c1ccccc1 | > 100 | > 100 |  | > 100 | > 100 | > 100 | > 100 |  | > 100 |  |  |  |  |  |  |  |  |  |  | 
O=C1Nc2ccccc2C1(O)C/C(=N/O)c1ccc2ccccc2c1 (stereo not given) | > 100 | > 100 | > 100 | > 100 | > 100 |  | > 100 | > 100 |  |  |  |  |  |  |  |  |  |  |  | 
